Series [1] concerns the target T1, human m-NAD(P)-ME WT (Homo sapiens, UniProt P23368).
T1 construct: made in house; host or cells: E. coli BL21 (pRH281 vector, trp promoter)
The series is described as follows: ATP/ADP inhibition of enzyme activity. In kind it is biochemical. On the procedure:
(§1) The ME reaction was measured with the production rate of NADH or NADPH via the absorbance at 340 nm. The reaction mixture in a saturated condition included 1 mM NAD(P)^+, 40 mM malate, and 10 mM MgCl2 in 50 mM Tris-HCl (pH 7.4). To determine the Km and kcat values, the concentration of one substrate was varied around its Km values while the concentrations of the other components were fixed at saturated concentrations.
C is the slope of the curve at its midpoint. […] All of the calculations were performed using the Sigma Plot 10.0 software program (Jandel Scientific, San Rafael, CA, USA).

Series [2] relates to lung tumor. On the set-up: method as in PMID 24957098. Conditions: in vivo; cited from earlier work.
Series [3] concerns human non-small cell lung carcinoma H1299 cancer cells. Also noted: method as in PMID 26008970. Conditions: cited from earlier work.
The target of series [4] is T2, m-NAD(P)-ME (Homo sapiens, UniProt P23368).
T2 construct: made in house; host or cells: E. coli BL21 (pRH281 vector, trp promoter)
T2 sequence (P23368 19-584): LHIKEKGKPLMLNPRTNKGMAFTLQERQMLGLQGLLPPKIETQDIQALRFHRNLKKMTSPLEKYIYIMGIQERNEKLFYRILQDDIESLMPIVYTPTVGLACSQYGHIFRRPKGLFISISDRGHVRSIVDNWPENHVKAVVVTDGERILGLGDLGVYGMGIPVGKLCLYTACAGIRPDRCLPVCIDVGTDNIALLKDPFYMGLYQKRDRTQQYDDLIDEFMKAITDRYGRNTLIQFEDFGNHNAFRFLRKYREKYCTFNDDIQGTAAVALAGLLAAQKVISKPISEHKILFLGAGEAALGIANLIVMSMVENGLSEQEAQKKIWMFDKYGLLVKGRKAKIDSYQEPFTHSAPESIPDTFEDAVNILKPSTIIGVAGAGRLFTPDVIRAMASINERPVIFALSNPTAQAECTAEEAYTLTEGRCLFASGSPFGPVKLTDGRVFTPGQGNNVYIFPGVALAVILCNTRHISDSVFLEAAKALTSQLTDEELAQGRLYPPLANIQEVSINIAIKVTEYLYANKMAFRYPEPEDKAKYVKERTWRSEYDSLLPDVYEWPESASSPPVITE
Nature of the series: Fumarate titration, activation of enzyme activity. In kind it is biochemical. The note with it: WT; 15 mM L-malate, 10 mM MgCl2, 1 mM NAD+, pH 7.4; fumarate 0 to 6 mM. On the procedure: as §1
Figure S2. Fumarate activating effect on human m-NAD(P)-ME WT and the exosite mutants.

Series [5] deals with T2, m-NAD(P)-ME. The series is described as follows: Size distribution analysis by analytical ultracentrifugation: monomer-dimer-tetramer equilibrium with different ligands. The format is binding. The note with it: NAD+-bound enzyme vs apoenzyme.
Protocol: All sedimentation velocity data were globally fitted by a monomer-dimer-tetramer equilibrium model by the software program of SEDPHAT[34]. The parameters protein partial specific volume, solvent density and viscosity were calculated with the [sequence] software program[35].
Series [6] has as its target T2, m-NAD(P)-ME. Nature of the series: Quaternary structure analysis by native gel electrophoresis. The format is binding. Conditions: 8 μg enzyme; 0.4 or 2 mM NAD+, 0.5 or 2 mM ATP. On the procedure: The native gel was running under 110 Voltage with a running buffer (25 mM Tris-HCl and 192 mM glycine, pH8.3) at 4 °C. After electrophoresis, protein was detected by staining with the Coomassie brilliant blue R-250.
Figure S1. Quaternary structure of m-NAD(P)-ME determined by the native gel electrophoresis. The dimer-tetramer distribution of m-NAD(P)-ME was presented on the 3-12% Bis-Tris Native PAGE (NativePAGE^TM Novex®, Life Technologies).

Series [7] deals with human m-NAD(P)-ME WT and the exosite mutants. Nature of the series: Size distribution analysis by analytical ultracentrifugation of WT and exosite mutants, protein only, with NAD+ or with ATP. In kind it is binding. The note with it: PBS. On the procedure:
Size distribution of the monomer-dimer-tetramer equilibrium of the enzyme was monitored using a Beckman Optima XL-A analytical ultracentrifuge instrument. A protein sample (380 µl) and reference buffer (400 µl) were loaded into a well-assembled cell with a double-sector centerpiece. Experiments were performed with an An-50Ti rotor at 42,000 rpm and 20 °C for 3 to 4 hours. The scans for sedimentation velocity data were monitored by the UV absorbance at 280 nm with a 480 s interval time and a 0.002 cm step size in continuous distribution mode. Using the SEDFIT 9.4c software[31]–[34], the size distribution of the enzyme was analyzed with a resolution corresponding to N = 200 to cover the range of sedimentation coefficient (S) values from approximately 0.1 to 20, a confidence level of p = 0.95, and a best-fit average anhydrous frictional ratio (f/f0). The dissociation constants of monomer-dimer-tetramer self-association model were globally analyzed by using the SEDPHAT software.
All sedimentation velocity data were globally fitted by a monomer-dimer-tetramer equilibrium model by the software program of SEDPHAT[34]. The parameters protein partial specific volume, solvent density and viscosity were calculated with the […] software program.
Figure 4 Continuous sedimentation coefficient distribution of human m-NAD(P)-ME WT and the exosite mutants. The enzyme concentrations were fixed at 1.6, 4.7, and 14.2 μM in PBS. […] (a) ME2_WT; (b) ME2_H154V; (c) ME2_K156A; (d) ME2_G192A; (e) ME2_R194N; (f) ME2_R197E; (g) ME2_R197D.
Figure 5 Continuous sedimentation coefficient distribution of human m-NAD(P)-ME WT and the exosite mutants. The enzyme concentrations were fixed at 1.6, 4.7, and 14.2 μM in PBS. […] (a) ME2_N482G; (b) ME2_N482A; (c) ME2_R542V; (d) ME2_Y552F; (e) ME2_R556Q; (f) ME2_R556V.

Series [8] concerns human m-NAD(P)-ME WT and exosite mutants. Nature of the series: Enzyme kinetic assay (NADH production, absorbance at 340 nm) of WT and exosite mutants. The format is biochemical. The note with it: for K0.5,malate / Km / kcat: pH 7.4. On the procedure:
as §1
The cooperativity of malate was determined with the following equation: ν=Vmax×[Malate]^h/K0.5h+[Malate]^h where ν is the initial velocity, Vmax is the maximum rate of the reaction, K0.5 is the substrate concentration at half-maximal velocity, and h is the Hill coefficient, which represents the degree of cooperativity.

Setting [9] is: protein only, read-out: Kd,12 monomer-dimer dissociation constant.
The mark [10] stands for this setting: protein only, read-out: Kd,24 dimer-tetramer dissociation constant.
The mark [11] stands for this setting: read-out: Kd,12(ATP), with 0.5 mM ATP.
Where [12] appears, read: read-out: Kd,24(ATP), with 0.5 mM ATP.
Where [13] appears, read: with 0.4 mM NAD+, read-out: Kd,12(NAD).
Where [14] appears, read: with 0.4 mM NAD+, read-out: Kd,24(NAD).

Data on 7 molecules can be found in PMC6591397, “Functional Roles of Metabolic Intermediates in Regulating the Human Mitochondrial NAD(P)^+-Dependent Malic Enzyme” (Scientific Reports, 2019).

Values joined by “and” are separate entries in the source; they are usually repeats but may differ in a detail not shown here. Identical values can stand only once. Counter-ions that a name gives are not always drawn. Like-named read-outs stand apart in the source and are kept apart here.

As a reminder, the IC50 is the concentration needed to halve the response being measured. A lower IC50 goes with inhibition by little substance. The Kd is the constant that tells how readily two partners part at equilibrium. Broadly, the Km is the substrate concentration at which the rate is half of its maximum. What is called kcat is the number of substrate molecules converted per active site and unit of time at saturation.

T1 sequence (P23368 19-584): as above

With `Nc1ncnc2c1ncn2[C@@H]1O[C@H](COP(=O)(O)OP(=O)(O)O)[C@@H](O)[C@H]1O` [ADP], in series [1], the IC50 was 3740 µM and 3700 µM.
Regarding `COC(=O)CC(O)C(=O)OC` (stereo not drawn) [DMM, dimethyl-malate], in series [2], the “effect on lung tumor growth” value is given as “suppress lung tumor growth in vivo”.
With `O=C(O)c1cc2ccccc2c(Cc2c(O)c(C(=O)O)cc3ccccc23)c1O` [EA, Embonic acid], in series [3], the “effect on cell growth” value is “suppresses the cell growth” and the “effect on cellular senescence” value is on record as “induces the cellular senescence”.
Regarding `O=C(O)/C=C/C(=O)O` [FUM, fumarate], the “maximal activation of the enzyme by fumarate” value in series [4] was “approximately 2 fold”.
Consider `NC(=O)c1ccc[n+]([C@@H]2O[C@H](COP(=O)([O-])OP(=O)(O)OC[C@H]3O[C@@H](n4cnc5c(N)ncnc54)[C@H](O)[C@@H]3O)[C@@H](O)[C@H]2O)c1` [NAD, NAD^+], for which the “Kd,24 lower than that of the apoenzyme” value in series [5] is 6 fold. The “dimer-tetramer distribution of the enzyme on native gel” value in series [6] is “most tetrameric forms”.
For the molecule “R556V: exosite mutant of human m-NAD(P)-ME”, the Kd in series [7] (setting [9]) came to 0.13 ± 0.001 µM; in series [7] (setting [10]), 2.3 ± 0.02 µM; in series [7] (setting [11]) it was 2.03 ± 0.06 µM; in series [7] (setting [12]), 0.18 ± 0.01 µM; in series [7] (setting [13]), 0.6 ± 0.01 µM; in series [7] (setting [14]), 4.07 ± 0.08 µM. In addition, the entries for the “h (Hill coefficient, malate cooperativity)” value in series [8] ((+) with 5 mM fumarate) and in series [8] ((−) without fumarate) were 1.24 ± 0.30 and 2.35 ± 0.47, respectively. For the same molecule, the “K0.5,malate” value was found to be 1.87 ± 0.26 mM in series [8] ((+) with 5 mM fumarate) and 15.90 ± 1.51 mM in series [8] ((−) without fumarate). Moreover, the figures for the Km in series [8] ((+) with 5 mM fumarate) and in series [8] ((−) without fumarate) were 360 ± 20 µM and 1080 ± 60 µM, respectively. The kcat in series [8] ((+) with 5 mM fumarate) turned out to be 204.9 ± 9.5 s⁻¹; in series [8] ((−) without fumarate) it was 195.2 ± 12.8 s⁻¹.
Regarding “WT: wild-type human mitochondrial NAD(P)+-dependent malic enzyme (ME2), recombinant from E. coli”, the dissociation constant (Kd) in series [7] (setting [9]) is 0.24 ± 0.002 µM; in series [7] (setting [10]), 0.35 ± 0.003 µM; in series [7] (setting [11]) it was 0.64 ± 0.01 µM; in series [7] (setting [12]), 2.72 ± 0.06 µM; in series [7] (setting [13]), 0.66 ± 0.01 µM; in series [7] (setting [14]), 0.05 ± 0.001 µM. Moreover, the “h (Hill coefficient, malate cooperativity)” value in series [8] ((+) with 5 mM fumarate) is reported as 1.10 ± 0.09; in series [8] ((−) without fumarate), 2.41 ± 0.32; in series [8] ((−) without fumarate, listed as Human m-NAD(P)-ME), “approximately 2”. Also, the “K0.5,malate” value turned out to be 2.98 ± 0.21 mM in series [8] ((+) with 5 mM fumarate) and 10.67 ± 0.64 mM in series [8] ((−) without fumarate). Also, the Km stood at 390 ± 50 µM in series [8] ((+) with 5 mM fumarate) and 540 ± 60 µM in series [8] ((−) without fumarate). Further, the kcat in series [8] ((+) with 5 mM fumarate) turned out to be 261.7 ± 6.0 s⁻¹; in series [8] ((−) without fumarate), 252.0 ± 8.2 s⁻¹.
